Tests used:
Drosophila [1] = system: Drosophila
Method: In order to monitor fly behavior, five-day old virgin female Canton-S Drosophila melanogaster were cultured at 25° C., 50-60% humidity, 12 hr:12 hr light:dark cycle, on brewer's yeast, dark corn syrup and agar food, following procedures modified from J. Bennett and D. L. van Dyke, Dros. […] Continuous, high-resolution measurement of fly behavior was achieved using an ultrasound activity monitoring system shown in FIG. 1A. Briefly, a 44 kHz standing wave was passed across an independent enclosure containing a single fly. An integrated circuit sampled a portion of each wave as a function of the transmit signal and compared it to the output from the receive signal for the same time-window. When the fly moved its mass within the field, it perturbed the standing wave and the resulting difference was counted as a movement. The output was sampled by a PC at 200 Hz, the data were summed in 2-sec bins and stored for later processing. This system detects very small movements in Drosophila's behavioral repertoire, including fine movements of the head, wings, and limbs. To monitor rest-activity patterns in large numbers of flies, an infrared Drosophila Activity Monitoring System was used (Trikinetics; described in M. Hamblen et al., J. Neurogen. 3:249 (1986)). To validate the system, flies were visually monitored for a total of 17.75 h (n=7). The number of times the fly crossed the infrared beam was counted in 5-minute bins. […] Drugs (caffeine or hydroxyzine) dissolved in food were continuously available to flies beginning in the final hour of the light period.

Drosophila [2] = assay: Responsiveness to arousing stimuli (arousal threshold) in flies; type: in vivo, Drosophila melanogaster; conditions: flies given drug in food
Method: In order to determine whether periods of rest are associated with increased arousal thresholds, flies were subjected to vibratory stimuli of increasing intensity (0.05 g, 0.1 g, and 6 g). In these experiments, flies were placed in glass tubes (65 mm in length, 5 mm I.D.) maintained on a hard plastic platform above a Grass speaker. The output of the speaker was controlled via a Beckman signal generator and the resulting vibration of the platform was measured with an accelerometer. Each fly received a stimulus each hour (total of 8 stimuli) of constant intensity. The behavioral state at the time of stimulus delivery and the ensuing response were videotaped and scored off-line.

| total amount of activity during the light period (Drosophila [1]; in vivo) | responsiveness to arousing stimuli (Drosophila [2]) | Structure (SMILES) | motor activity (Drosophila [1]; flies given drug in food from final hour of light period) | amount of rest during the dark period (Drosophila [1]; flies given drug in food from final hour of light period, FIG. 3C, n=36/dose, p<0.0001) | rest during the first hour of the dark period (Drosophila [1]; flies given drug in food from final hour of light period, FIG. 3D, n=40/dose) | latency to first dark period rest (Drosophila [1]; flies given drug in food from final hour of light period, FIG. 3E, n=40/dose) |
| --- | --- | --- | --- | --- | --- | --- |
| – | – | Cn1c(=O)c2c(ncn2C)n(C)c1=O [caffeine] | increased | decreased in a dose-dependent fashion | – | – |
| unchanged | preserved | OCCOCCN1CCN(C(c2ccccc2)c2ccc(Cl)cc2)CC1 (stereo not drawn) [hydroxyzine] | – | – | increased in a dose-dependent manner | decreased |
